One assay concerns the target PfCDPK4 (Plasmodium falciparum (isolate 3D7), UniProt Q8IBS5). The experiment in a line: biochemical. The note with it: read-out: PfCDPK4 (% inhibition @ 3 uM).
The target in the next assay is PfCDPK1 (Plasmodium falciparum (isolate 3D7), UniProt P62344). Description: biochemical. The note with it: read-out: PfCDPK1 (% inhibition @ 3 uM).

For orientation: inhibition means the share of the control response that was lost under treatment. `CC(C)n1nc(Cc2cccc3ccccc23)c2c(N)ncnc21` [Compound 3, 1-isopropyl-3-(naphthalen-1-ylmethyl)-1H-pyrazolo[3,4-d]pyrimidin-4-amine]: the inhibition at 3 µM at PfCDPK4 was 76%; at PfCDPK1, 78%.
Consider `Cn1nc(Cc2cccc3ccccc23)c2c(N)ncnc21` [Compound 5a, 1-methyl-3-(naphthalen-1-ylmethyl)-1H-pyrazolo[3,4-d]pyrimidin-4-amine], for which the inhibition at 3 µM at PfCDPK4 was determined as 52%.
For `C#CCn1nc(Cc2cccc3ccccc23)c2c(N)ncnc21` [Compound 5b, 3-(naphthalen-1-ylmethyl)-1-(prop-2-ynyl)-1H-pyrazolo[3,4-d]pyrimidin-4-amine], the inhibition at 3 µM on PfCDPK4 was determined as 20%.
Regarding `NC(=O)Cn1nc(Cc2cccc3ccccc23)c2c(N)ncnc21` [Compound 5c, 2-(4-amino-3-(naphthalen-1-ylmethyl)-1H-pyrazolo[3,4-d]pyrimidin-1-yl)acetamide], the inhibition at 3 µM on PfCDPK4 amounted to 23%; at PfCDPK1, 45%.
On the same counts, the results for `CC(C)(C)n1nc(Cc2cccc3ccccc23)c2c(N)ncnc21` [Compound 5d, 1-tert-butyl-3-(naphthalen-1-ylmethyl)-1H-pyrazolo[3,4-d]pyrimidin-4-amine] are 86% and 76%.
On to `Nc1ncnc2c1c(Cc1cccc3ccccc13)nn2Cc1ccccc1` [Compound 5e, 1-benzyl-3-(naphthalen-1-ylmethyl)-1H-pyrazolo[3,4-d]pyrimidin-4-amine], for which the inhibition at 3 µM on PfCDPK4 came to 5%.
Same read-out and setting: in the case of `Nc1ncnc2c1c(Cc1cccc3ccccc13)nn2C1CCCCC1` [Compound 5f, 1-cyclohexyl-3-(naphthalen-1-ylmethyl)-1H-pyrazolo[3,4-d]pyrimidin-4-amine] it was 15%.
As to `Nc1ncnc2c1c(Cc1cccc3ccccc13)nn2C1CCNCC1` [Compound 5g, 3-(naphthalen-1-ylmethyl)-1-(piperidin-4-yl)-1H-pyrazolo[3,4-d]pyrimidin-4-amine], the inhibition at 3 µM at PfCDPK4 was 75%; at PfCDPK1 it was 56%.
For `Nc1ncnc2c1c(Cc1cccc3ccccc13)nn2CCC1CCNCC1` [Compound 5i, 3-(naphthalen-1-ylmethyl)-1-(2-(piperidin-4-yl)ethyl)-1H-pyrazolo[3,4-d]pyrimidin-4-amine], in that order: 80% and 58%.
As to `CC(=O)N1CCC(n2nc(Cc3cccc4ccccc34)c3c(N)ncnc32)CC1` [Compound 5j, 1-(4-(4-amino-3-(naphthalen-1-ylmethyl)-1H-pyrazolo[3,4-d]pyrimidin-1-yl)piperidin-1-yl)ethanone], the inhibition at 3 µM on PfCDPK4 was 48%.
Consider `CC(=O)N1CCC(Cn2nc(Cc3cccc4ccccc34)c3c(N)ncnc32)CC1` [Compound 5k, 1-(4-((4-amino-3-(naphthalen-1-ylmethyl)-1H-pyrazolo[3,4-d]pyrimidin-1-yl)methyl)piperidin-1-yl)ethanone], for which the values for the inhibition at 3 µM at PfCDPK4 and at PfCDPK1 were 28% and 69%, respectively.
Take `CC(=O)N1CCC(CCn2nc(Cc3cccc4ccccc34)c3c(N)ncnc32)CC1` [Compound 5l, 1-(4-(2-(4-amino-3-(naphthalen-1-ylmethyl)-1H-pyrazolo[3,4-d]pyrimidin-1-yl)ethyl)piperidin-1-yl)ethanone]: the inhibition at 3 µM worked out at 41% on PfCDPK4 and 51% at PfCDPK1.
`CCN1CCC(n2nc(Cc3cccc4ccccc34)c3c(N)ncnc32)CC1` [Compound 5m, 1-(1-ethylpiperidin-4-yl)-3-(naphthalen-1-ylmethyl)-1H-pyrazolo[3,4-d]pyrimidin-4-amine]: the inhibition at 3 µM at PfCDPK4 amounted to 42%.
On to `CCN1CCC(Cn2nc(Cc3cccc4ccccc34)c3c(N)ncnc32)CC1` [Compound 5n, 1-((1-ethylpiperidin-4-yl)methyl)-3-(naphthalen-1-ylmethyl)-1H-pyrazolo[3,4-d]pyrimidin-4-amine], for which the figures for the inhibition at 3 µM on PfCDPK4 and on PfCDPK1 were 27% and 49%, respectively.
On the same counts, the results for `CCN1CCC(CCn2nc(Cc3cccc4ccccc34)c3c(N)ncnc32)CC1` [Compound 5o, 1-(2-(1-ethylpiperidin-4-yl)ethyl)-3-(naphthalen-1-ylmethyl)-1H-pyrazolo[3,4-d]pyrimidin-4-amine] are 37% and 71%.
With `CS(=O)(=O)N1CCC(n2nc(Cc3cccc4ccccc34)c3c(N)ncnc32)CC1` [Compound 5p, 1-(1-(methylsulfonyl)piperidin-4-yl)-3-(naphthalen-1-ylmethyl)-1H-pyrazolo[3,4-d]pyrimidin-4-amine], the inhibition at 3 µM on PfCDPK4 was 53%.
In the case of `CS(=O)(=O)N1CCC(Cn2nc(Cc3cccc4ccccc34)c3c(N)ncnc32)CC1` [Compound 5q, 1-((1-(methylsulfonyl)piperidin-4-yl)methyl)-3-(naphthalen-1-ylmethyl)-1H-pyrazolo[3,4-d]pyrimidin-4-amine], the inhibition at 3 µM at PfCDPK4 amounted to 15%; at PfCDPK1, 78%.
On the same counts, the results for `CS(=O)(=O)N1CCC(CCn2nc(Cc3cccc4ccccc34)c3c(N)ncnc32)CC1` [Compound 5r, 1-(2-(1-(methylsulfonyl)piperidin-4-yl)ethyl)-3-(naphthalen-1-ylmethyl)-1H-pyrazolo[3,4-d]pyrimidin-4-amine] are 22% and 55%.
For the compound `CC(C)n1nc(-c2cccc(OCc3ccccc3)c2)c2c(N)ncnc21` [Compound 7aa, 3-(3-(benzyloxy)phenyl)-1-isopropyl-1H-pyrazolo[3,4-d]pyrimidin-4-amine], the figures for the inhibition at 3 µM at PfCDPK4 and on PfCDPK1 were 18% and 75%, respectively.
With `CC(C)n1nc(-c2ccc3c(c2)CCCO3)c2c(N)ncnc21` [Compound 7w, 3-(chroman-6-yl)-1-isopropyl-1H-pyrazolo[3,4-d]pyrimidin-4-amine], the inhibition at 3 µM on PfCDPK4 was determined as 55%.
Still for that read-out and setting: under `CC(C)n1nc(-c2cccc3c2sc2ccccc23)c2c(N)ncnc21` [Compound 7x, 3-(dibenzo[b,d]thiophen-4-yl)-1-isopropyl-1H-pyrazolo[3,4-d]pyrimidin-4-amine] stands 21%.
Same read-out and setting: under `CC(C)n1nc(-c2cccc(Cc3ccccc3)c2)c2c(N)ncnc21` [Compound 7y, 3-(3-benzylphenyl)-1-isopropyl-1H-pyrazolo[3,4-d]pyrimidin-4-amine] stands 17%; under `Nc1ncnc2c1c(Cc1cccc3ccccc13)nn2C1CCCC1` [Compound 13, 1-cyclopentyl-3-(naphthalen-1-ylmethyl)-1H-pyrazolo[3,4-d]pyrimidin-4-amine], 25%; under `CC(C)n1nc(Cc2ccc3ccccc3c2)c2c(N)ncnc21` [Compound 14, 1-isopropyl-3-(naphthalen-2-ylmethyl)-1H-pyrazolo[3,4-d]pyrimidin-4-amine], 13%.
The same measure, in the same setting: in the case of `Nc1ncnc2c1c(Cc1cccc3ccccc13)nn2C1CCOCC1` [Compound 15, 3-(naphthalen-1-ylmethyl)-1-(tetrahydro-2H-pyran-4-yl)-1H-pyrazolo[3,4-d]pyrimidin-4-amine] it was 11%; in that of `CC(C)n1nc(-c2cccnc2)c2c(N)ncnc21` [Compound 16, 1-isopropyl-3-(pyridin-3-yl)-1H-pyrazolo[3,4-d]pyrimidin-4-amine], 13%; in that of `CC(C)n1nc(-c2cncnc2)c2c(N)ncnc21` [Compound 18, 1-isopropyl-3-(pyrimidin-5-yl)-1H-pyrazolo[3,4-d]pyrimidin-4-amine], 4%.
For the compound `CC(C)n1nc(-c2ccnc(Cl)c2)c2c(N)ncnc21` [Compound 19, 3-(2-chloropyridin-4-yl)-1-isopropyl-1H-pyrazolo[3,4-d]pyrimidin-4-amine], the inhibition at 3 µM at PfCDPK4 was 14%.
On to `CC(C)n1nc(-c2ccc3c(ccn3C)c2)c2c(N)ncnc21` [Compound 20, 1-isopropyl-3-(1-methyl-1H-indol-5-yl)-1H-pyrazolo[3,4-d]pyrimidin-4-amine], for which the inhibition at 3 µM on PfCDPK4 turned out to be 93%.
The same measure, in the same setting: in the case of `CC(C)n1nc(-c2cc3ccccc3[nH]2)c2c(N)ncnc21` [Compound 24, 3-(1H-indol-2-yl)-1-isopropyl-1H-pyrazolo[3,4-d]pyrimidin-4-amine] it was 93%.
Still for that read-out and setting: in the case of `COc1ccc2[nH]c(-c3nn(C(C)C)c4ncnc(N)c34)cc2c1` [Compound 27, 1-isopropyl-3-(5-methoxy-1H-indol-2-yl)-1H-pyrazolo[3,4-d]pyrimidin-4-amine] it was 44%; in that of `CC(C)Oc1ccc2cc(-c3nn(CC4CCNCC4)c4ncnc(N)c34)ccc2c1` [Compound 32, 3-(6-isopropoxynaphthalen-2-yl)-1-(piperidin-4-ylmethyl)-1H-pyrazolo[3,4-d]pyrimidin-4-amine], 96%.
The same measure, in the same setting: under `CCCOc1ccc2cc(-c3nn(CC4CCNCC4)c4ncnc(N)c34)ccc2c1` [Compound 33, 1-(piperidin-4-ylmethyl)-3-(6-propoxynaphthalen-2-yl)-1H-pyrazolo[3,4-d]pyrimidin-4-amine] stands 98%; under `CCCCOc1ccc2cc(-c3nn(CC4CCNCC4)c4ncnc(N)c34)ccc2c1` [Compound 35, 3-(6-butoxynaphthalen-2-yl)-1-(piperidin-4-ylmethyl)-1H-pyrazolo[3,4-d]pyrimidin-4-amine], 99%.
For the compound `C=CCOc1ccc2cc(-c3nn(CC4CCNCC4)c4ncnc(N)c34)ccc2c1` [Compound 36, 3-(6-(allyloxy)naphthalen-2-yl)-1-(piperidin-4-ylmethyl)-1H-pyrazolo[3,4-d]pyrimidin-4-amine], at PfCDPK4, the inhibition at 3 µM is 99%.
As to `Nc1ncnc2c1c(-c1ccc3cc(OCc4ccccc4Cl)ccc3c1)nn2CC1CCNCC1` [Compound 37, 3-(6-(2-chlorobenzyloxy)naphthalen-2-yl)-1-(piperidin-4-ylmethyl)-1H-pyrazolo[3,4-d]pyrimidin-4-amine], the inhibition at 3 µM at PfCDPK4 was determined as 96%.
As to `Nc1ncnc2c1c(-c1ccc3cc(OCc4cccc(Cl)c4)ccc3c1)nn2CC1CCNCC1` [Compound 38, 3-(6-(3-chlorobenzyloxy)naphthalen-2-yl)-1-(piperidin-4-ylmethyl)-1H-pyrazolo[3,4-d]pyrimidin-4-amine], the inhibition at 3 µM on PfCDPK4 turned out to be 96%.

The values above are taken from patent publication US11247972B2, “Compositions and methods for treating toxoplasmosis, cryptosporidiosis, and other apicomplexan protozoan related diseases” (University of Washington through its Center for …, priority 2010, dated 2022).
